In brackets after ≈: the same amount, converted by molar mass.
Experiments:
C6 cells = assay: Annexin V FITC/PI flow cytometric analysis of apoptosis, C6 cells; format: cell-based, rat; conditions: for early and late apoptotic cell population: C6 cell line, sum of early and late apoptotic cells; for Early Apoptotic Cells% / Late Apoptotic Cells% / Viable Cells%: C6 cells, 24 h, compounds at IC50 values
Experimental: (§1) Annexin V staining protocol was applied according to the manufacturer’s instructions (BD Pharmingen, San Jose, CA, USA). The cells were then briefly washed with cold phosphate buffer saline (PBS) and suspended in a binding buffer at a concentration of 1 × 10^6 cells/mL. Then, 100 µL of this solution containing 1 × 10^5 cells was transferred to a 5 mL test tube. After 5 µL of Annexin V and PI was added, the cells were incubated for 15 min at room temperature in the dark. Then 400 µL of 1× binding buffer was added to each tube and the cells were processed for data acquisition, and analyzed on a BD FACSAria flow cytometer using FACSDiva version 6.1.1 software (BD Biosciences, San Jose, CA, USA).

Akt [1] = assay: In cell ELISA colorimetric Akt activity, C6 cells; format: cell-based, rat; conditions: compounds at IC50 concentrations for 24 h
Experimental: (§2) Briefly, the media was removed and 100 µL of 4% formaldehyde was added to each well. The plate was incubated in a fume hood at room temperature for 15 min. Formaldehyde was removed and the plate was washed twice with 100 µL/well of 1× TBS. Then, 1× TBS was removed, 100 µL/well of 1× permeabilization buffer was added and incubated for 15 min at room temperature. The permeabilization buffer was removed and the plate was washed once with 100 µL/well of 1× TBS. Then, 1× TBS was removed, 100 µL/well quenching solution was added and incubated at room temperature for 20 min. Quenching solution was removed and the plate was washed once with 100 µL/well of 1× TBS. Then, 1× TBS was removed and 100 µL/well of blocking buffer was added and incubated at room temperature for 30 min. After the blocking buffer was removed, 50 µL/well of primary antibody was added. A plate sealer was applied and incubated overnight at 4 °C. The primary antibody solution was removed and the plate was washed three times with 100 µL/well of 1× wash Buffer. After the wash buffer was removed, 100 µL/well of diluted HRP conjugate was added and incubated for 30 min at room temperature. The wash buffer was removed and 100 µL/well of TMB substrate was added. The plate was then incubated at room temperature, protected from light. 100 µL/well of TMB stop solution was added and the absorbance was measured at 450 nm within 30 min of stopping the reaction. The experiment was performed in triplicate wells. The values of blank wells were subtracted from each well of treated and control cells. Percent Akt activity was defined as the relative absorbance of treated versus untreated control cells.

Akt [2] = assay: In cell ELISA colorimetric Akt activity, A549 cells; format: cell-based, human; conditions: compounds at IC50 concentrations for 24 h
Experimental: as §2

A549 cells = assay: Annexin V FITC/PI flow cytometric analysis of apoptosis, A549 cells; format: cell-based, human; conditions: 24 h, compounds at IC50 values
Experimental: as §1

[3] = system: A549 human lung adenocarcinoma cell line; assay: MTT assay, A549 cells; format: cell-based; conditions: for IC50: Homo sapiens, A549, 24 h
Experimental: (§3) C6 Rat glioma and NIH/3T3 mouse embryonic fibroblast cells were incubated in Dulbecco’s Modified Eagle’s Medium (DMEM) (Sigma, Deisenhofen, Germany) supplemented with 10% fetal calf serum (Gibco, Paisley, UK). A549 Human lung adenocarcinoma cells were incubated in 90% RPMI supplemented with 10% fetal bovine serum (Gibco, Paisley, UK). All media were supplemented with 100 IU/mL penicillin-streptomycin (Gibco, Paisley, UK) and the cells were incubated at 37 °C in a humidified atmosphere of 95% air and 5% CO2. Exponentially growing cells were plated at 2 × 10^4 cells/mL into 96-well microtiter tissue culture plates (Nunc, Roskilde, Denmark) and incubated for 24 h before the addition of the drugs (the optimum cell number for cytotoxicity assays was determined in preliminary experiments). The stock solutions of the compounds were prepared in dimethyl sulfoxide (DMSO; Sigma Aldrich, Poole, UK) and further dilutions were made with fresh culture medium (the concentration of DMSO in the final culture medium was <0.1% which had no effect on the cell viability).
(§4) The level of cellular 3-(4,5-dimethylthiazol-2-yl)-2,5-diphenyltetrazolium bromide (MTT) (Sigma-Aldrich, St. Louis, MO, USA) reduction was quantified as previously described in the literature with small modifications. […] At the end of this period, MTT was added to a final concentration of 0.5 mg/mL and the cells were incubated for 4 h at 37 °C. After the medium was removed, the formazan crystals formed by MTT metabolism were solubilized by addition of 200 µL DMSO to each well and absorbance was read at 540 nm with a microtiter plate spectrophotometer (BioTek Plate Reader, Winooski, VT, USA). Every concentration was repeated in three wells.

C6 rat glioma cell line = assay: MTT assay, C6 cells; format: cell-based; conditions: for IC50: Rattus norvegicus, C6, 24 h
Experimental: as §3, §4

[4] = system: NIH/3T3 mouse embryonic fibroblast cell line; assay: MTT assay, NIH/3T3 cells (healthy); format: cell-based; conditions: NIH3T3, 24 h
Experimental: as §3, with “viability). The level of cellular 3-(4,5-dimethylthiazol-2-yl)-2,5-diphenyltetrazolium bromide (MTT) (Sigma-Aldrich, St. Louis, MO, USA) reduction was quantified as previously described in the literature with small modifications. […] At the end of this period, MTT was added to a final concentration of 0.5 mg/mL and the cells were incubated for 4 h at 37 °C. After the medium was removed, the formazan crystals formed by MTT metabolism were solubilized by addition of 200 µL DMSO to each well and absorbance was read at 540 nm with a microtiter plate spectrophotometer (BioTek Plate Reader, Winooski, VT, USA). Every concentration was repeated in three wells.” for “viability).”

| SMILES | IC50 [3] [µg/mL] | IC50 (C6 rat glioma cell line) [µg/mL] | melting point [°C] | early and late apoptotic cell population (C6 cells) [%] | Early Apoptotic Cells% (C6 cells) [%] | Late Apoptotic Cells% (C6 cells) [%] | Akt Inhibition % C6 Cell Line (Akt [1]) [%] | Akt Inhibition % A549 Cell Line (Akt [2]) [%] | Early Apoptotic Cells% (A549 cells) [%] | Late Apoptotic Cells% (A549 cells) [%] | IC50 A549 Cell Line ([3]; 24 h) [µg/mL] | IC50 C6 Cell Line (C6 rat glioma cell line; 24 h) [µg/mL] | IC50 [4] [µg/mL] | Viable Cells% (C6 cells) [%] | Viable Cells% (A549 cells) [%] |
| --- | --- | --- | --- | --- | --- | --- | --- | --- | --- | --- | --- | --- | --- | --- | --- |
| N.N.[Cl][Pt][Cl] [Cisplatin, cisplatin, reference compound] |  |  |  | 28.8 | 3.3 | 25.5 | 77.25 ± 5.75 | 31.01 ± 3.18 | 2.6 | 63.5 | 17.33 ± 2.08 | 12.67 ± 3.06 |  |  |  |
| N#Cc1ccc(Oc2ccc(C=NNc3nc(-c4ccc([N+](=O)[O-])cc4)cs3)cc2)cc1 [Compound 2, 2-[2-((4-(4-Cyanophenoxy)phenyl)methylene)hydrazinyl]-4-(4-nitrophenyl)thiazole] | 100 ± 20 (≈ 227 µM) | > 500 | 250 to 251 |  |  |  |  |  |  |  |  |  | 71.7 ± 24.7 (≈ 162 µM) |  |  |
| N#Cc1ccc(Oc2ccc(C=NNc3nc(-c4ccc(F)cc4)cs3)cc2)cc1 [Compound 3, 2-[2-((4-(4-Cyanophenoxy)phenyl)methylene)hydrazinyl]-4-(4-fluorophenyl)thiazole] | 193 ± 15.3 (≈ 466 µM) | > 500 | 204 to 205 |  |  |  |  |  |  |  |  |  | 170 ± 36.1 (≈ 410 µM) |  |  |
| N#Cc1ccc(Oc2ccc(C=NNc3nc(-c4ccc(C#N)cc4)cs3)cc2)cc1 [Compound 6, 2-[2-((4-(4-Cyanophenoxy)phenyl)methylene)hydrazinyl]-4-(4-cyanophenyl)thiazole] | 12 ± 1.73 (≈ 28.5 µM) | 3.83 ± 0.76 (≈ 9.09 µM) | 232 to 233 | 32.8 | 4.6 | 28.2 | 71.66 ± 4.09 | 45.77 ± 10.58 | 2.3 | 36.5 |  |  | > 500 | 42.2 | 14.4 |
| COc1ccc(-c2csc(NN=Cc3ccc(Oc4ccc(C#N)cc4)cc3)n2)cc1 [Compound 9, 2-[2-((4-(4-Cyanophenoxy)phenyl)methylene)hydrazinyl]-4-(4-methoxyphenyl)thiazole] | 233 ± 57.7 (≈ 547 µM) | > 500 | 210 to 211 |  |  |  |  |  |  |  |  |  | 433 ± 28.9 (≈ 1020 µM) |  |  |
| N#Cc1ccc(Oc2ccc(C=NNc3nc(-c4ccc5ccccc5c4)cs3)cc2)cc1 [Compound 10, 2-[2-((4-(4-Cyanophenoxy)phenyl)methylene)hydrazinyl]-4-(naphthalen-2-yl)thiazole] | > 500 | > 500 | 204 to 205 |  |  |  |  |  |  |  |  |  | > 500 |  |  |

Second part, led by results:

| IC50 [3] [µg/mL] | IC50 (C6 rat glioma cell line) [µg/mL] | melting point [°C] | SMILES | early and late apoptotic cell population (C6 cells) [%] | Early Apoptotic Cells% (C6 cells) [%] | Late Apoptotic Cells% (C6 cells) [%] | Akt Inhibition % C6 Cell Line (Akt [1]) [%] | Akt Inhibition % A549 Cell Line (Akt [2]) [%] | Early Apoptotic Cells% (A549 cells) [%] | Late Apoptotic Cells% (A549 cells) [%] | IC50 A549 Cell Line ([3]; 24 h) [µg/mL] | IC50 C6 Cell Line (C6 rat glioma cell line; 24 h) [µg/mL] | IC50 [4] [µg/mL] | Viable Cells% (C6 cells) [%] | Viable Cells% (A549 cells) [%] |
| --- | --- | --- | --- | --- | --- | --- | --- | --- | --- | --- | --- | --- | --- | --- | --- |
| 410 ± 14.1 (≈ 1030 µM) | > 500 |  | N#Cc1ccc(Oc2ccc(C=NNc3nc(-c4ccccc4)cs3)cc2)cc1 [Compound 1, 2-[2-((4-(4-Cyanophenoxy)phenyl)methylene)hydrazinyl]-4-phenylthiazole] |  |  |  |  |  |  |  |  |  | 197 ± 20.8 (≈ 496 µM) |  |  |
| 207 ± 23.1 (≈ 480 µM) | > 500 | 227 to 228 | N#Cc1ccc(Oc2ccc(C=NNc3nc(-c4ccc(Cl)cc4)cs3)cc2)cc1 [Compound 4, 2-[2-((4-(4-Cyanophenoxy)phenyl)methylene)hydrazinyl]-4-(4-chlorophenyl)thiazole] |  |  |  |  |  |  |  |  |  | 180 ± 10 (≈ 418 µM) |  |  |
| 198 ± 10.4 (≈ 417 µM) | > 500 | 217 to 218 | N#Cc1ccc(Oc2ccc(C=NNc3nc(-c4ccc(Br)cc4)cs3)cc2)cc1 [Compound 5, 2-[2-((4-(4-Cyanophenoxy)phenyl)methylene)hydrazinyl]-4-(4-bromophenyl)thiazole] |  |  |  |  |  |  |  |  |  | 163 ± 5.77 (≈ 344 µM) |  |  |
| 270 ± 95.4 (≈ 658 µM) | 16 ± 5.66 (≈ 39 µM) | 228 to 229 | Cc1ccc(-c2csc(NN=Cc3ccc(Oc4ccc(C#N)cc4)cc3)n2)cc1 [Compound 7, 2-[2-((4-(4-Cyanophenoxy)phenyl)methylene)hydrazinyl]-4-(4-methylphenyl)thiazole] |  | 3.2 | 14.3 | 70.42 ± 10.37 |  |  |  |  |  | 185 ± 5 (≈ 451 µM) | 69.2 |  |
| 107 ± 5.77 (≈ 259 µM) | 5.83 ± 0.76 (≈ 14.1 µM) | 249 to 250 | N#Cc1ccc(Oc2ccc(C=NNc3nc(-c4ccc(O)cc4)cs3)cc2)cc1 [Compound 8, 2-[2-((4-(4-Cyanophenoxy)phenyl)methylene)hydrazinyl]-4-(4-hydroxyphenyl)thiazole] |  | 1.9 | 23.8 | 24.99 ± 0.52 | 57.37 ± 17.30 | 2.1 | 38.7 |  |  | 227 ± 11.6 (≈ 550 µM) | 49.7 | 18.5 |
| 92.5 ± 3.54 (≈ 312 µM) | 26.3 ± 1.53 (≈ 88.8 µM) | 235 to 236 | N#Cc1ccc(Oc2ccc(C=NNC(N)=S)cc2)cc1 [Compound A, 4-(4-Cyanophenoxy)benzaldehyde thiosemicarbazone] |  | 3.2 | 13.1 | 25.23 ± 8.62 | 68.08 ± 2.48 | 7.6 | 45.9 |  |  | 225 ± 18 (≈ 759 µM) | 70.2 | 24.2 |

Source: publication PMC6100633, “Design, Synthesis, and Evaluation of a New Series of Thiazole-Based Anticancer Agents as Potent Akt Inhibitors” (Molecules : A Journal of Synthetic Chemistry and Natural …, 2018)
